Assay results as given in US20160376240A1, “6 Phenyl or 6 Pyridin 3 YL Indazole Derivatives and Methods of Use” (ABBVIE INC., priority 2014, published 2016).

Target: T1, TrkA (Homo sapiens, UniProt P04629)
T1 construct: purchased Invitrogen PV3144
Experiment: TrkA kinase inhibition, HTRF assay
Format: biochemical
Conditions: LCK peptide substrate 125 nM, TrkA 2-10 nM pre-incubated with ATP 200 μM
Description: TrkA, TrkB, and TrkC enzymes were obtained from Invitrogen (as catalog numbers PV3144, PV3616, and PV3617, respectively). The ability of a compound to inhibit the enzymatic activity of the TrkA, TrkB, and TrkC enzymes was determined in separate assays. Enzyme activity was measured in an HTRF® (homogeneous time resolved fluorescence) assay, which detects enzymatic phosphorylation of a biotinylated synthetic peptide substrate (an LCK peptide analog, biotin-ahx-GAEEEIYAAFFA, from Genemed Synthesis). Phosphorylation is assessed by HTRF® in the presence of an anti-phosphotyrosine antibody conjugated to Eu^3+ cryptate (Cisbio) as donor fluorophore, and streptavidin conjugated to allophycocyanin (ProZyme) as acceptor fluorophore. The HTRF® signal was detected at two different wavelengths (620 nm and 665 nm) which were used to calculate the fluorescence ratio.
Each enzyme was titrated to a concentration optimized to ensure accurate measurement of the initial reaction rate. To allow the Trk enzymes to undergo activation and auto-phosphorylation, a 20 minute pre-incubation with ATP was carried out (at twice the final targeted enzyme and ATP concentration) prior to addition of test compound and the peptide substrate.
TrkA in vitro assays were performed by pre-incubating TrkA (2-10 nM) with ATP (200 μM) for 20 minutes at ambient temperature in 50 mM HEPES pH 7.4, 10 mM MgCl2, 2 mM MnCl2, 100 μM Na3VO4, 1 mM dithiothreitol, 0.01% BSA (bovine serum albumin). Then, to the activated Trk enzyme mixture was added the test compound in 2% dimethyl sulfoxide. After 10 minutes, the peptide substrate (125 nM) was added. After 1 hour, enzyme reactions were terminated by addition of equal reaction volumes of detection/stop reagent (containing 0.2 μg/mL anti-phosphotyrosine monoclonal antibody labeled with europium from Cisbio (catalog# PT66-K), and 4 μg/mL PhycoLink® Streptavidin-Allophycocyanin conjugate from ProZyme (catalog# PJ25S) in 60 mM EDTA in 40 mM HEPES pH 7.4, 480 mM KF, 0.01% Tween® 20 and 0.1% BSA bovine serum albumin) Reaction plates were stored at 4° C. overnight before reading the fluorescence ratio signal on a PerkinElmer EnVision™ fluorescence detector. Individual reaction wells were stopped at time points to obtain reaction rates. The test inhibitor compounds were assayed in duplicate, at half-log serial dilutions over a range of concentrations (e.g. starting at 50 μM or 5 μM as the high compound concentration). The percent Trk enzyme inhibition was calculated from the initial rates of the inhibited reactions relative to the uninhibited control. IC50 values were calculated by fitting the inhibition percent to the concentration of inhibitor [I] in the assay in equation 1 below, to solve for the IC50.
Inhibition %=100[I]/([I]+[IC50]) equation 1

T1 sequence (P04629 33-796): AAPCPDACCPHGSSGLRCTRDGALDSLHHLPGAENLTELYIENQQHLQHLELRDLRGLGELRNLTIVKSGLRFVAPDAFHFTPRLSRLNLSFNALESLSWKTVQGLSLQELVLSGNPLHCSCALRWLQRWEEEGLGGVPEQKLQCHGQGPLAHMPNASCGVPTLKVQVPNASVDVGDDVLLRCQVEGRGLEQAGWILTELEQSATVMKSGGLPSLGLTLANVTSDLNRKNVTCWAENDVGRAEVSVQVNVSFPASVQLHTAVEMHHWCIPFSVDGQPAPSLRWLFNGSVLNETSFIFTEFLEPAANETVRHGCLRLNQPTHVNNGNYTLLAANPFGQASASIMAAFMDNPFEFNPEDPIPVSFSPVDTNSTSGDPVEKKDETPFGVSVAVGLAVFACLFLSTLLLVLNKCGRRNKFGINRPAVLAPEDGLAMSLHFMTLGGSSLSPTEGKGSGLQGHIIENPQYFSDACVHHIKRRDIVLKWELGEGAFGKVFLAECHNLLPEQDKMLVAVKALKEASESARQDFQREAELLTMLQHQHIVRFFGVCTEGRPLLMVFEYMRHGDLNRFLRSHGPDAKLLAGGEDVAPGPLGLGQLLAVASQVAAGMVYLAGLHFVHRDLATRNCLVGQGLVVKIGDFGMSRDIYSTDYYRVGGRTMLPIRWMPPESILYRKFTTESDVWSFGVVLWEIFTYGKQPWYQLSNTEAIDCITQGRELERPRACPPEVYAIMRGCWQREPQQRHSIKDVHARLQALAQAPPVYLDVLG

| IC50 [nM] | Structure (SMILES) |
| --- | --- |
| 16.4 | CNC(=O)c1ccc(-c2cc(OC3CCOCC3)c3c(N)n[nH]c3c2)cc1N1CCN(CC2CC2(F)F)CC1 (stereo not shown) [Example 173, 4-[3-amino-4-(tetrahydro-2H-pyran-4-yloxy)-1H-indazol-6-yl]-2-{4-[(2,2-difluorocyclopropyl)methyl]piperazin-1-yl}-N-methylbenzamide] |
| 13500 | NC(=O)c1ccc(-c2ccc3c(N)n[nH]c3c2)cc1N1CCN(CCN2CCOCC2)CC1 [Example 89, 4-(3-amino-1H-indazol-6-yl)-2-{4-[2-(morpholin-4-yl)ethyl]piperazin-1-yl}benzamide] |
| 214 | CNC(=O)c1ccc(-c2cc(OC3CCCC3)c3c(C)n[nH]c3c2)cc1N1CCN(C(=O)OCC(C)C)CC1 [Example 128, isobutyl 4-{5-[4-(cyclopentyloxy)-3-methyl-1H-indazol-6-yl]-2-(methylcarbamoyl)phenyl}piperazine-1-carboxylate] |
| 3.75 | CNC(=O)c1ccc(-c2cc(OC3CCOCC3)c3c(C)n[nH]c3c2)cc1N1CCN(Cc2cccnc2)CC1 [Example 123, N-methyl-4-[3-methyl-4-(tetrahydro-2H-pyran-4-yloxy)-1H-indazol-6-yl]-2-[4-(pyridin-3-ylmethyl)piperazin-1-yl]benzamide] |
| 42.1 | CNC(=O)c1ccc(-c2cc(OC3CCOCC3)c3c(N)n[nH]c3c2)cc1N1CCN(c2cccnc2)CC1 [Example 31, 4-[3-amino-4-(tetrahydro-2H-pyran-4-yloxy)-1H-indazol-6-yl]-N-methyl-2-[4-(pyridin-3-yl)piperazin-1-yl]benzamide] |
| 667 | CNC(=O)c1ccc(-c2cc(OC(C)C(F)(F)F)c3c(N)n[nH]c3c2)cc1N1CCN(CCN2CCOCC2)CC1 (stereo not shown) [Example 37, 4-{3-amino-4-[(1,1,1-trifluoropropan-2-yl)oxy]-1H-indazol-6-yl}-N-methyl-2-{4-[2-(morpholin-4-yl)ethyl]piperazin-1-yl}benzamide] |
| 44 | NC(=O)c1ccc(-c2cc(OC3CCCC3)c3c(N)n[nH]c3c2)cc1N1CCN(CC(=O)N2CCCCC2)CC1 [Example 107, 4-[3-amino-4-(cyclopentyloxy)-1H-indazol-6-yl]-2-{4-[2-oxo-2-(piperidin-1-yl)ethyl]piperazin-1-yl}benzamide] |
| 15.9 | CNC(=O)c1ccc(-c2cc(OC3CCOCC3)c3c(C)n[nH]c3c2)cc1N1CCN(Cc2cccc(F)c2)CC1 [Example 154, 2-[4-(3-fluorobenzyl)piperazin-1-yl]-N-methyl-4-[3-methyl-4-(tetrahydro-2H-pyran-4-yloxy)-1H-indazol-6-yl]benzamide] |
| 95.8 | CNC(=O)c1ccc(-c2cc(OC3CCOCC3)c3c(C)n[nH]c3c2)cc1N1CCN(CC(F)(F)F)CC1 [Example 143, N-methyl-4-[3-methyl-4-(tetrahydro-2H-pyran-4-yloxy)-1H-indazol-6-yl]-2-[4-(2,2,2-trifluoroethyl)piperazin-1-yl]benzamide] |
| 17.7 | Cc1n[nH]c2cc(-c3ccc(C(=O)NC4CC4)c(N4CCN(c5ccccc5)CC4)c3)cc(OC3CCOCC3)c12 [Example 117, N-cyclopropyl-4-[3-methyl-4-(tetrahydro-2H-pyran-4-yloxy)-1H-indazol-6-yl]-2-(4-phenylpiperazin-1-yl)benzamide] |
| 31.9 | Cc1n[nH]c2cc(-c3ccc(C(N)=O)c(N4CCN(C(=O)OC(C)(C)C)CC4)c3)cc(OC3CCOCC3)c12 [Example 140, tert-butyl 4-{2-carbamoyl-5-[3-methyl-4-(tetrahydro-2H-pyran-4-yloxy)-1H-indazol-6-yl]phenyl}piperazine-1-carboxylate] |
| 317 | CCc1n[nH]c2cc(-c3ccc(C(=O)NC)c(N4CCN(C(=O)OC(C)(C)C)CC4)c3)cc(OC3CCOCC3)c12 [Example 158, tert-butyl 4-{5-[3-ethyl-4-(tetrahydro-2H-pyran-4-yloxy)-1H-indazol-6-yl]-2-(methylcarbamoyl)phenyl}piperazine-1-carboxylate] |
| 31.2 | CNC(=O)c1ccc(-c2cc(OC(C)C(F)(F)F)c3c(N)n[nH]c3c2)cc1N1CCN(c2cnccn2)CC1 (stereo not shown) [Example 38, 4-{3-amino-4-[(1,1,1-trifluoropropan-2-yl)oxy]-1H-indazol-6-yl}-N-methyl-2-[4-(pyrazin-2-yl)piperazin-1-yl]benzamide] |
| 20.1 | NC(=O)c1ccc(-c2cc(OC3CCCC3)c3c(N)n[nH]c3c2)cc1N1CCN(C2CC2)CC1 [Example 78, 4-[3-amino-4-(cyclopentyloxy)-1H-indazol-6-yl]-2-(4-cyclopropylpiperazin-1-yl)benzamide] |
| 673 | CNC(=O)c1ccc(-c2cc(O[C@H](C)C(F)(F)F)c3c(N)n[nH]c3c2)cc1N1CCOC(CC(C)C)C1 (stereo partly drawn) [Example 58, 4-(3-amino-4-{[(2R)-1,1,1-trifluoropropan-2-yl]oxy}-1H-indazol-6-yl)-2-(2-isobutylmorpholin-4-yl)-N-methylbenzamide] |
| 166 | CC(=O)Nc1ccc(-c2cc(OC3CCOCC3)c3c(C)n[nH]c3c2)cc1N1CCN(C(=O)NC(C)C)CC1 [Example 151, 4-{2-acetamido-5-[3-methyl-4-(tetrahydro-2H-pyran-4-yloxy)-1H-indazol-6-yl]phenyl}-N-isopropylpiperazine-1-carboxamide] |
| 136 | NC(=O)c1ccc(-c2cc(OC3CCOCC3)c3c(N)n[nH]c3c2)cc1N1CCN(CCc2ccccn2)CC1 [Example 10, 4-[3-amino-4-(tetrahydro-2H-pyran-4-yloxy)-1H-indazol-6-yl]-2-{4-[2-(pyridin-2-yl)ethyl]piperazin-1-yl}benzamide] |
| 28.1 | Cc1n[nH]c2cc(-c3ccc(NS(C)(=O)=O)c(N4CCN(C(=O)OC(C)(C)C)CC4)c3)cc(OC3CCOCC3)c12 [Example 162, tert-butyl 4-{2-[(methylsulfonyl)amino]-5-[3-methyl-4-(tetrahydro-2H-pyran-4-yloxy)-1H-indazol-6-yl]phenyl}piperazine-1-carboxylate] |
| 539 | CC(Oc1cc(-c2ccc(C(N)=O)c(N3CCN(c4ccncc4)CC3)c2)cc2[nH]nc(N)c12)C(F)(F)F (stereo not shown) [Example 98, 4-{3-amino-4-[(1,1,1-trifluoropropan-2-yl)oxy]-1H-indazol-6-yl}-2-[4-(pyridin-4-yl)piperazin-1-yl]benzamide] |
| 38 | CNC(=O)c1ccc(-c2cc(OC3CCOCC3)c3c(N)n[nH]c3c2)cc1N1CCN(CC(F)F)CC1 [Example 169, 4-[3-amino-4-(tetrahydro-2H-pyran-4-yloxy)-1H-indazol-6-yl]-2-[4-(2,2-difluoroethyl)piperazin-1-yl]-N-methylbenzamide] |
| 67.1 | CN1CCC(Oc2cc(-c3ccc(C(=O)NC4CC4)c(N4CCN(c5ccccc5)CC4)c3)cc3[nH]nc(N)c23)CC1 [Example 62, 4-{3-amino-4-[(1-methylpiperidin-4-yl)oxy]-1H-indazol-6-yl}-N-cyclopropyl-2-(4-phenylpiperazin-1-yl)benzamide] |
| 75.4 | CNC(=O)c1ccc(-c2cc(O[C@H](C)C(F)(F)F)c3c(N)n[nH]c3c2)cc1N1CCN(CCC(C)(C)C)CC1 [Example 51, 4-(3-amino-4-{[(2R)-1,1,1-trifluoropropan-2-yl]oxy}-1H-indazol-6-yl)-2-[4-(3,3-dimethylbutyl)piperazin-1-yl]-N-methylbenzamide] |
